Source: patent publication US20110071225A1, “METHOD FOR OBTAINING A SEQUOYITOL-CONTAINING EXTRACT FROM GENUS NEPHROLEPIS AND USES THEREOF” (GUANGZHOU WELMAN NEW DRUG R&D CO., LTD., priority 2008, published 2011)

Key:
Solubility in water = format: physicochemical
Experimental: Sequoyitol was dissolved in water and sterilized by filtration. Solutions for injection were prepared according to the operation procedure of solutions for injection. Powder for injection was prepared according to the operation procedure of lyophilized powder for injection.

diabetes models = conditions: sequoyitol isolated from Taxus chinensis; cited from earlier work
[1] = sequoyitol isolated from Taxus chinensis; cited from earlier work
[2] = test system: elevated level of blood glucose induced by alloxan in mice; assay: Effect on the elevated level of blood glucose induced by alloxan in mice; format: in vivo; conditions: 75 mg/kg via gavage, 7 days
Experimental: 80 male mice weighed 22˜25 g were used. 20 mice were randomly taken as the blank group. Others were injected intravenously with alloxan via caudal vein at a dose of 65 mg/kg body weight, and then modeled according to established methods. The mice were divided into 3 groups according to their level of blood glucose, in which 2 groups were administered via gavage with 60 mg/kg of the Nephrolepis auriculata extract, 75 mg/kg of phenformin (positive control) respectively for consecutive 7 days, in a volume of 0.1 ml/10 g body weight. The same volume of distilled water was administered to the blank group and the control group. Blood glucose was determined using glucose oxidase method.

Solubility in water (Solubility in water)	Compound	Absorption of glucose (diabetes models)	Breakdown of hepatic glycogen (diabetes models)	High glycemia in diabetes models (diabetes models)	Toxicity [1]	Decrease of hyperglycemia induced by alloxan vs control group [2] [mg/dL]
well soluble	CO[C@H]1[C@H](O)[C@@H](O)[C@@H](O)[C@@H](O)[C@@H]1O [Sequoyitol, sequoyitol]	inhibits	inhibits	remarkably decreases	very low toxicity	–
–	[H]/N=C(/N)N/C(=N/[H])NCCc1ccccc1 [phenformin]	–	–	–	–	152.8
